Patent US8822532B2, “Bis[thiohydrazide amide] compounds for treating leukemia” (Synta Pharmaceuticals Corp., priority 2009, dated 2014)

Tests used:
[1] = tested on: AML patient blast cells; test: Flow cytometry (MMP, ROS, GSH, membrane integrity) of primary AML patient blasts treated ex vivo; assay type: cell-based, human
Description: • Cell lines: OCI-AML2, OCI-AML5, OCI-M2 (p53 mutant M6), MV4-11 (FLT3-ITD) • Patients were treated by the Princess Margaret Hospital Leukemia Program. • Primary blasts from 10 AML patients isolated by density gradient or RBC lysis, maintained in a-MEM+10% FBS±10% 5637-conditioned medium. Flow Cytometry Protocol: • Combined staining at 37° for: • MMP—DiIC1(5) 40 nM 30′ • ROS—carboxy-dichlorofluorescin […] or dihydrorhodamine 123 […] for 30′ • GSH—monobromobimane […] for 5′ • Surface membrane integrity—propidium iodide […] for 5′ • Samples run on 3 laser flow cytometer (Gallios, Beckman-Coulter)

[2] = tested on: metastatic melanoma; conditions: cited from earlier work

SMILES | mitochondrial dysfunction and cell death ([1]; ex vivo treatment of primary blast cells from patients with AML) | primary endpoint, difference between the two arms ([2]; elevated LDH population) | survival endpoint ([2]; elevated LDH population) | progression-free survival improvement (primary endpoint) ([2]; normal LDH population) | safety profile ([2]; normal LDH population) | ROS ([1]; Patient #123 blasts, 100nM, 6 hr, FIG. 3a) | loss of mitochondrial membrane potential versus outer membrane integrity (dual MMP/PI plots) ([1]; Patient #123 blasts, FIG. 3a) | reduced GSH ([1]; Patient #123 blasts, FIG. 3a) | sensitivity of primary patient blasts compared with AML cell lines ([1]; Patient #123 blasts, FIG. 3a) | sensitivity of blasts ([1]; Patient #126 blasts, FIG. 3d) | GSH ([1]; Patient #127 blasts, 30 nM, already evident at 6 hr, FIG. 3b) | sensitivity of blasts ([1]; Patient #131 blasts (higher baseline GSH), FIG. 3c) | GSH and MMP ([1]; Patient #131 blasts, FIG. 3c) | ROS ([1]; Patient #131 blasts, most evident at 30 nM 24 hr, FIG. 3c) | depletion of GSH and dissipation of mitochondrial membrane potential ([1]; all cases) | impairment of primary blasts ([1]; all samples, 30 nM)
CN(NC(=O)CC(=O)NN(C)C(=S)c1ccccc1)C(=S)c1ccccc1 [elesclomol, N-malonyl-bis(N′-methyl-N′-thiobenzoylhydrazide)] | rapidly induced mitochondrial dysfunction and cell death | no difference was observed | negative impact | achieved | acceptable safety profile | – | – | – | – | – | – | – | – | – | – | –
CN1C(c2ccccc2)=[SH][Cu]23[SH]=C(c4ccccc4)N(C)[N]2C(=O)CC(=O)[N]13 [elesclomol-Cu(II)] | – | – | – | – | – | slight increase in ROS | loss of mitochondrial membrane potential precedes the loss of outer membrane integrity | lost co-incident with the loss of MMP | more drug-sensitive | highly sensitive | loss of GSH | less sensitive | loss of GSH co-incident with loss of MMP | increased ROS | occurred in all cases | significant impairment
